Assay results: patent EP2873675A1, “Peptide-based peroxidase inhibitors and methods of using same” (The Medical College of Wisconsin, Inc., priority 2013, dated 2015)
Entries after “also recorded” stand apart in the source; their conditions may differ. Residues, ends and D or L forms follow the SMILES beside them.

Legend:
MPO [1] = assay: MPO-catalyzed HOCl production (taurine/TMB assay); assay type: biochemical
Procedure: MPO-mediated HOCl Production. MPO (20 nM) was incubated with H2O2 (50 µM), NaCl (150 mM), taurine (5 mM) and increasing concentrations of KYC in phosphate buffer (100 mM, pH 7.4) which also contained diethylene triamine pentaacetic acid (DTPA, 100 µM) to prevent non-specific, divalent metal cation oxidation for 30 min. Reactions were halted by addition of catalase. Chlorotaurine was quantified using the 3,3-,5,5-tetramethylbenzidine (TMB) assay. Briefly, 400 µL of reaction solution was mixed with 100 µL of 2 mM TMB, 100 µM NaI containing 10% dimethylformamide (DMF) in 400 mM acetate buffer (pH 5.4). After 5 min, absorbance (650 nm) was recorded on a UV/Vis spectrophotometer (Agilent Model 8453).
MPO-catalyzed HOCl Production: MPO (20 nM) was incubated with H2O2 (50 µM), NaCl (150 mM), taurine (5 mM) and increasing concentrations of KYC in a phosphate buffer (100 mM, pH 7.4) containing diethylene triamine pentaacetic acid (DTPA, 100 µM) to prevent non-specific, divalent metal cation oxidation for 30 min. Reactions were halted by addition of catalase (2,000 units/mL). Chlorotaurine was quantified using the TMB assay (66). Briefly, 400 µL of reaction solution was mixed with 100 µL of 2 mM TMB, 100 µM NaI containing 10% dimethylformamide (DMF) in 400 mM acetate buffer (pH 5.4). After 5 min, absorbance (650 nm) was recorded on a UV/Vis spectrophotometer (Agilent Model 8453).

MPO [2] = assay: MPO-mediated LDL malondialdehyde (MDA) formation; assay type: biochemical; conditions: increasing concentrations; LDL 0.5 mg/mL, MPO 50 nM, H2O2 50 µM, NO2 50 µM
Procedure: MPO-mediated LDL Malondialdehyde (MDA) Formation: Reaction mixtures contained LDL (0.5 mg/mL), NaNO2 (50 µM), H2O2 (50 µM), MPO (50 nM) and increasing concentrations of KYC in a phosphate buffer (100 mM, pH 7.4) containing DTPA (100 µM). After incubation at 37 °C for 4 h, the reactions were stopped by addition of catalase (2,000 units/mL). The formation of MDA was determined according to a published procedure. Briefly, incubation mixtures (containing 25 mM BHT) were adjusted to pH 1.5 and incubated at 60 °C for 80 min to hydrolyze the Schiff Bases formed from MDA and protein. The samples were mixed with 3-fold volume of N-methyl-2-phenylindole (13.4 mM in acetonitrile/methanol (3:1)). After centrifugation (13000 g, 5 min) 330 µL of the supernatants were mixed with 57.5 µL of concentrated HCl and incubated at 45 °C for another 60 min. Finally, after centrifugation (13000 g, 5 min), total MDA in the samples was determined from the absorbance at 586 nm using a UV-Vis spectrophotometer (Agilent Model 8453).

MPO [3] = assay: MPO-mediated nitration of LDL (dot blot); assay type: biochemical; conditions: MPO/H2O2/NaNO2, 37 °C, 4 h
Procedure: MPO-mediated Nitration of LDL: LDL (0.5 mg/mL) was incubated with MPO (50 nM), H2O2 (50 µM), NaNO2 (50 µM) and increasing concentrations of KYC in phosphate buffer (100 mM, pH 7.4) containing DTPA (100 µM) at 37 °C for 4 h. Reactions were stopped by addition of catalase (2,000 units/mL). Formation of NO2Tyr was assessed by dot blot analysis. Briefly, LDL solutions were mixed with 1% SDS and centrifuged (12000 g, 15 min). Aliquots of supernatants were applied to a nitrocellulose membrane with a dot blot apparatus (Biorad model: Bio-Dot). The levels of NO2Tyr were visualized using a rabbit polyclonal anti-NO2Tyr antibody (EMD, Gibbstown, NJ) and the ECL plus kit from Thermo-Peirce (Rockford, IL).

BAEC = assay: MPO-mediated BAEC injury (cell morphology); assay type: cell-based, Bovine; conditions: 20 min
[4] = test system: facialis arteries from non-treated SCD mice; assay: Vasodilatation of facialis arteries from untreated SCD mice, treated ex vivo in the vessel bath; conditions: 1.5 µg/ml added to vessel bath, 20 min
Procedure: For vessels treated with KYC (ex-vivo): Using untreated SCD mice, the vessels were isolated/ cannulated the same as for the mice treated with KYC in vivo. After the control dose-response curve using acetylcholine (ACh, 10^-7 - 10^-4 M) and subsequent washing, the vessels were incubated with KYC 1.5 µg/ml for 20 minutes, pre-constricted, and exposed to acetylcholine (ACh, 10^-7 - 10^-4 M). Vasodilation to papaverine (2.0X10^-4 M) was determined after all treatments to ensure smooth muscle viability. Vasodilation was calculated as a percent of maximal vessel diameter change.

SCD mice = assay: Immunofluorescence of aortas of SCD mice; assay type: in vivo; conditions: IP 0.3 mg/kg/d, three weeks; vs non-treated SCD mice
Procedure: Immunofluorescence Studies. In a separate study, SCD mice were treated with KYC (IP, 0.3 mg/kg/d). After three weeks treatment, mice were deeply anesthetized and euthanized by exsanguination. Thoracic and abdominal aortas were surgically removed and rinsed free of blood elements using ice cold PBS. Aortas were fixed, imbedded in paraffin, and sectioned.

C57BL/6J mice = assay: Acute lung injury: pulmonary retention of Q-dot labeled EMPs; assay type: in vivo; conditions: pretreatment and treatment of EMP-injected mice
Procedure: KYC Inhibits Acute Lung Injury. Inflammation and sepsis induce the release of endothelial cell microparticles (EMPs). Increased production of EMPs is hypothesized to play a causal role in the mechanisms mediating acute lung injury (ALI). To test this hypothesis, the inventors incubated human umbilical vein endothelial cells with PAI-1, which is well-recognized for inducing endothelial cells to generate EMPs. The EMPs were collected by ultracentrifugation, resuspended in physiological saline solution and then labeled with Q-dots. The Q-dot labeled EMPs were counted and then injected into C57BL/6J mice to achieve a final concentration of 100,000 EMPs/mL of blood. Mice were pretreated with phosphate buffered saline (Fig. 6) or KYC and then were injected with Q-dot labeled EMPs alone or Q-dot labeled EMPs plus KYC (Fig. 6).

CC(=O)N[C@@H](CCCCN)C(=O)N[C@@H](Cc1ccc(O)cc1)C(=O)N[C@@H](CS)C(N)=O [KYC, N-acetyl Lysyltyrosylcysteine amide] (Ac-Lys-Tyr-Cys-NH2)
MPO-catalyzed HOCl production, comparison at equimolar concentration (MPO [1]; 12.5 µM): comparable to that of tryptophan; also recorded: significantly more effective at inhibiting MPO-dependent HOCl production than GSH | inhibition of HOCl production (MPO [1]; 12.5 µM): ~75% | MPO-dependent HOCl production (MPO [1]; 25 µM): completely inhibits; also recorded: completely ablated | IC50 (MPO [1]; MPO 20 nM, H2O2 50 µM, NaCl 150 mM, 30 min): ~7 µM | MPO-mediated MDA formation in LDL (MPO [2]): dose-dependently inhibited | NO2Tyr in LDL (MPO [3]): markedly reduces | protection of BAEC from MPO-induced injury (morphology) (BAEC; 25 µM, higher MPO (5 µg/ml) or H2O2 (100 µM), data not shown): protected BAEC from even higher concentrations of MPO | protection of BAEC from MPO-induced injury (morphology) (BAEC; 50 µM, MPO 2.5 µg/ml, H2O2 50 µM): almost the same morphology as cultures that were not exposed to MPO | vasodilatation in response to ACh [4]: did not increase vasodilatation | MPO levels in the aortas (SCD mice): reduced | chlorotyrosine levels in the aortas (SCD mice): reduced | pulmonary retention of Q-dot labeled EMPs (C57BL/6J mice): dramatically decreases pulmonary retention
